Values after ≈ are worked out from the molar mass of the structure shown. Blank lines part the entries; values can stand above or below the compound they belong to.
Assays:
[1] = Inhibition of AAC(6')-ly (unknown origin) in presence of kanamycin A
[2] = Inhibition of AAC(6')-ly (unknown origin) in presence of ribostamycin
[3] = Activity at AAC(6')-li (unknown origin)
[4] = Binding affinity to biotinylated Escherichia coli 16S rRNA A-site
[5] = Ratio of Kcat to Km for AAC(6')-li (unknown origin)
Escherichia coli = assay: Antibacterial activity against Escherichia coli ATCC 25922; format: functional
[6] = Binding affinity to AAC(6')-lb (unknown origin)
[7] = Inhibition of AAC(6')-lb (unknown origin)

Kii [1]: 23 µM
Kis [1]: 31 µM
Kii [2]: 92 µM
Kis [2]: 17 µM
SMILES: N=C(N)N[C@H]1[C@@H](O[C@H]2[C@H](O[C@@H]3O[C@H](CO)[C@@H](O)[C@H]3O)[C@@H](O)[C@H](NC(=N)N)C[C@@H]2NC(=N)N)O[C@H](CNC(=O)CCN)[C@@H](O)[C@@H]1O

Km [3]: 28.7 µM
kcat [3]: 0.26 s⁻¹
kcat/Km [5]: 0.93 ×10⁴ /M/s
MIC (Escherichia coli): 6.25 µM (≈ 5.46 µg/mL)
SMILES: CN(CCCCN(C)C[C@@H](O)CO[C@@H]1[C@@H](O)[C@H](N)C[C@H](N)[C@H]1O[C@H]1O[C@H](CN)[C@@H](O)[C@H](O)[C@H]1N)C[C@@H](O)CO[C@@H]1[C@@H](O)[C@H](N)C[C@H](N)[C@H]1O[C@H]1O[C@H](CN)[C@@H](O)[C@H](O)[C@H]1N
Kd [4]: 40 nM

Kd [6]: 950 nM
Ki [7]: 500 nM
SMILES: CC(C)(COP(=O)(O)OP(=O)(O)OC[C@H]1O[C@@H](n2cnc3c(N)ncnc32)[C@H](O)[C@@H]1OP(=O)(O)O)[C@@H](O)C(=O)NCCC(=O)NCCSCC(=O)NCc1ccc(O[C@H]2C[C@H](N)C[C@@H]2N)cc1
